The record followed here is PubChem BioAssay (NCI).

Common to all, as to assay: growth of human tumour cells (NCI), 48 h
The subject of assay [1] is MOLT-4 leukemia.
Assay [2] deals with NCI-H226 lung.
Assay [3] concerns SN12C renal.
In assay [4] the test system is NCI-H23 lung.
Assay [5] has as its system ACHN renal.
For assay [6], the system named is LOX IMVI melanoma.
Assay [7] has as its system IGROV1 ovarian.
The subject of assay [8] is COLO 205 colon.
Assay [9] concerns 786-0 renal.
In assay [10] the test system is OVCAR-5 ovarian.
Assay [11] deals with A498 renal.
Assay [12] deals with SK-MEL-5 melanoma.
Assay [13] deals with TK-10 renal.
In assay [14] the test system is RXF 393 renal.
Assay [15] has as its system BT-549 breast.
Assay [16] relates to MDA-MB-435.

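Tested at 5 concentrations; 48 h exposure; 96-well plates; endpoints linearly interpolated, else capped at highest concentration. TGI marks complete inhibition of growth.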

In the case of `CCC(=O)NCC1(c2c[nH]c3ccccc23)SCCS1`, the TGI in assay [1], in assay [2], in assay [3], in [4], in assay [5] and in assay [6] was > 100 µM throughout. Also, the TGI in assay [7], in [8], in assay [9], in assay [10], in [11] and in assay [12] was > 100 µM throughout. Moreover, the TGI in assay [13] is > 100 µM.
`O=c1[nH]nc2c3n[nH]c(=O)n3c3ccccc3n12`: the TGI in [1], in assay [2], in assay [3], in assay [4], in assay [5] and in [14] was > 100 µM throughout. Also, the TGI in [6], in assay [7], in [8], in assay [9], in assay [10] and in assay [11] was > 100 µM throughout. Also, the TGI in [12] and in [13] was > 100 µM each time.
With `N[C@H]1CCc2c1nc1c(c2-c2ccccc2)CC[C@@H]1N`, the TGI in assay [1] was 27.6 µM; in assay [2], > 100 µM; in assay [3], > 100 µM; in assay [15], 28.1 µM; in assay [4] it was 61.6 µM; in assay [5], > 100 µM. Further, the TGI in assay [6] was 30.6 µM; in [7], 31.4 µM; in [16], 30.2 µM; in assay [8], 44.2 µM; in assay [9], 28.6 µM; in assay [10], 59.7 µM. The TGI in assay [12] was 29.7 µM; in assay [13], > 100 µM.
Take `CC(=O)C1CC2(c3ccccc3)C(=O)c3ccccc3N2O1` (stereo not drawn): the TGI in assay [1], in [2], in [3], in [4], in assay [5] and in assay [14] was > 100 µM each time. Further, the TGI in assay [7], in assay [8], in assay [9], in assay [11] and in assay [12] was > 100 µM each time.
As to `C/C(CC(=O)Nc1ccc(C)cc1)=N\NC(N)=S`, the TGI in assay [1], in [2], in assay [4], in assay [5], in [14] and in [6] was > 100 µM each time. Besides, the TGI in assay [7], in assay [8], in assay [9], in [10], in assay [11] and in assay [12] was > 100 µM in each case. For the same molecule, in [13], the TGI is > 100 µM.
Consider `CCCN(CCC)C(=O)Cc1c2n(c3ccccc13)CCCc1ccccc1-2`, for which the TGI in [1] was determined as 32.9 µM; in assay [2] it was 28.5 µM; in assay [3], 29.2 µM; in [4], 25.7 µM; in [5] it was 25.1 µM; in [14] it was 22.4 µM. In addition, the TGI was found to be 29.1 µM in assay [6]; 29.1 µM in [8]; 30.6 µM in assay [9]; 27.4 µM in assay [12]; 29.5 µM in [13].
Regarding `CN1C(=O)c2cccc3c([N+](=O)[O-])ccc(c23)C1=O`, the TGI in assay [1] worked out at 28.2 µM; in [2], 4.05 µM; in [3] it was 24.9 µM; in assay [4] it was 24.7 µM; in [5] it was 21.7 µM; in assay [14] it was 8.61 µM. Further, the TGI in assay [6] came to 18.9 µM; in assay [7], 9.43 µM; in assay [8] it was 19.8 µM; in assay [9] it was 21 µM; in assay [10], 13.4 µM; in assay [11] it was 5.64 µM. Also, the TGI in [12] is 32.6 µM; in assay [13], 15.6 µM.
Turning to `CCCCCCCCCCCCCC/C(=C/OCC[N+](C)(C)C)OC(C)=O` (tested in a mixture with another compound), the TGI in assay [2] came out at 14.7 µM; in [3], 12.5 µM; in assay [15] it was 5.85 µM; in assay [4], 7.65 µM; in assay [5], 14 µM; in [14] it was 2.45 µM. Also, the TGI is 3.96 µM in [7]; 7.49 µM in assay [16]; 5.08 µM in [8]; 2.34 µM in assay [9]; 13.2 µM in assay [10]; 6.99 µM in [11]. The values for the TGI in assay [12] and in assay [13] were 4.92 µM and 3.76 µM, respectively.
For the molecule `CSc1ccc2c(cc1=O)C(NC(=O)c1cc(O)c(OC(=O)O)c(O)c1)CCc1cc(O)c(O)c(O)c1-2` (stereo not drawn), the TGI was 35.6 µM in assay [1]; 62.3 µM in [2]; 26.7 µM in assay [3]; 42.5 µM in assay [4]; > 90 µM in [5]; > 90 µM in assay [14]. For the same molecule, the TGI in [6] is 24.8 µM; in assay [7], 37.7 µM; in assay [8] it was > 90 µM; in assay [9], > 90 µM; in assay [10], > 9 µM; in assay [11], > 90 µM. The TGI in [12] is 29.1 µM; in assay [13], > 90 µM.
As for `CC1(Br)C(=O)NC(=O)N([C@H]2C[C@H](O)[C@@H](CO)O2)C1N=[N+]=[N-]` (stereo partly drawn), the TGI in assay [1], in [2], in assay [3], in assay [4], in assay [5] and in [14] was > 100 µM throughout. Besides, the TGI in assay [6], in assay [7], in assay [8], in assay [9], in assay [10] and in assay [11] was > 100 µM throughout. The TGI in assay [12] and in assay [13] was > 100 µM in each case.
For the molecule `O=C1c2ccccc2N2OC3C4CCC(C4)C3C12c1ccccc1` (stereo not drawn), the TGI in assay [1] is > 100 µM; in [2] it was > 100 µM; in assay [3] it was > 100 µM; in assay [4] it was > 100 µM; in assay [5], > 100 µM; in assay [14] it was 77.8 µM. The TGI in assay [7], in assay [8], in assay [9], in [11] and in assay [12] was > 100 µM in each case.
